The subject of one assay is SK-OV-3. As to the kind of experiment: Anticancer activity against human SKOV3 cells assessed as inhibition of cell proliferation at 50 uM after 72 hrs relative to control. Type of assay: functional. The note with it: SK-OV-3, 72 h.
The target of assay [1] is Proto-oncogene tyrosine-protein kinase Src (Homo sapiens, UniProt P12931). The experiment in a line: Inhibition of c-Src using AEEEIYGEFEAKKKK substrate by fluorescence intensity assay.
The subject of a further assay is HT-29. As to the kind of experiment: Anticancer activity against human HT-29 cells assessed as inhibition of cell proliferation at 50 uM after 72 hrs relative to control. The note with it: HT-29, 72 h. Type of assay: functional.

Molecules are shown by their SMILES.

Chain of Proto-oncogene tyrosine-protein kinase Src (P12931 2-536 limits assumed): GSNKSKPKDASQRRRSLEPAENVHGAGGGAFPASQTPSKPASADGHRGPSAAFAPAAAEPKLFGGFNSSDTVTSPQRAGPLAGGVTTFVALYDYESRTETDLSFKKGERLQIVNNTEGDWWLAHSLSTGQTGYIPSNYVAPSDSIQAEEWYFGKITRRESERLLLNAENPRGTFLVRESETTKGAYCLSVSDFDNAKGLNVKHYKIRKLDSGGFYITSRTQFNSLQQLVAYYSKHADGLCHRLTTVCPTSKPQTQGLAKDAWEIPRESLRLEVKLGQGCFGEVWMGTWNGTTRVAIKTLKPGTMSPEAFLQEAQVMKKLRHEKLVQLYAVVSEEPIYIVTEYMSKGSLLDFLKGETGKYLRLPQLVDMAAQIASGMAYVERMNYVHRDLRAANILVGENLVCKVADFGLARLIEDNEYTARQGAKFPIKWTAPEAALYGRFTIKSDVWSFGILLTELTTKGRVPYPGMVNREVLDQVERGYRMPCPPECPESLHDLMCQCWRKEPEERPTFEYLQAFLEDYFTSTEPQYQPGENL

On to `CN(c1ccccc1)C(c1ccc(Cl)cc1)c1c[nH]c2ccccc12` (configuration not stated), for which, in the assay on SK-OV-3, the inhibition at 50 µM came out at 72%. For the same compound, the IC50 in assay [1] was over 150 µM.
Compound `Cc1ccc(C(c2c[nH]c3ccccc23)N(C)c2ccccc2)cc1` (configuration not stated) gave a concentration for half-maximal inhibition (IC50) in assay [1] of over 150 µM.
Compound `COc1ccc(C(c2c[nH]c3ccccc23)N(C)c2ccccc2)cc1` (configuration not stated) gave a half-maximal inhibitory concentration (IC50) in assay [1] of over 150 µM.
For the compound `CN(c1ccccc1)C(c1ccccc1)c1c[nH]c2ccccc12` (configuration not stated), in the assay with SK-OV-3, the inhibition at 50 µM stood at 55%. This compound returned an IC50 in assay [1] of 50.6 µM.
In turn, `CN(c1ccccc1)C(c1ccc(O)cc1)c1c[nH]c2ccccc12` (configuration not stated) had an IC50 in assay [1] of over 150 µM.
The same measure, in the same setting: as for `CN(c1ccccc1)C(c1ccc(O)c(Br)c1)c1c[nH]c2ccccc12` (configuration not stated), the figure is over 150 µM; as for `COc1cccc(C(c2c[nH]c3ccccc23)N(C)c2ccccc2)c1` (configuration not stated), over 150 µM; as for `COc1ccc(C(c2c[nH]c3ccccc23)N(C)c2ccccc2)c(OC)c1` (configuration not stated), over 150 µM.
As for `CN(c1ccccc1)C(c1ccccc1)c1cn(C)c2ccccc12` (configuration not stated), in assay [1], the IC50 is over 150 µM.
In the case of `CN(c1ccccc1)C(c1ccc(Cl)cc1)c1cn(C)c2ccccc12` (configuration not stated), in assay [1], it took 98.3 µM to reach half-maximal inhibition (IC50).
`Cc1ccc(C(c2cn(C)c3ccccc23)N(C)c2ccccc2)cc1` (configuration not stated) yielded a half-inhibitory concentration (IC50) in assay [1] of 60.5 µM.
The compound `CN(c1ccccc1)C(c1cccc([N+](=O)[O-])c1)c1c[nH]c2ccccc12` (configuration not stated) came in with an IC50 in assay [1] of 58.3 µM.
Compound `CN(c1ccccc1)C(c1ccccc1)c1c[nH]c2ccc(Br)cc12` (configuration not stated) showed an IC50 in assay [1] of 71.6 µM.
For `COc1ccc(C(c2c[nH]c3ccc(OC)cc23)N(C)c2ccccc2)cc1` (configuration not stated), 100 µM corresponded to half-maximal inhibition in assay [1] (IC50).
On to `COc1ccc2[nH]cc(C(c3ccc(C)cc3)N(C)c3ccccc3)c2c1` (configuration not stated), for which the inhibition at 50 µM in the assay with SK-OV-3 and with HT-29 was 70% in each case. The half-inhibitory concentration (IC50) in assay [1] was over 150 µM.
On to `Cc1ccc(C(c2c[nH]c3ccc(Br)cc23)N(C)c2ccccc2)cc1` (configuration not stated), for which the inhibition at 50 µM in the assay with SK-OV-3 and in the assay with HT-29 was 70% throughout. The compound also gave an IC50 in assay [1] of over 150 µM.
For the compound `COc1ccc(C(c2c[nH]c3ccc(Br)cc23)N(C)c2ccccc2)cc1` (configuration not stated), the inhibition at 50 µM in the assay on SK-OV-3 and in the assay on HT-29 was 70% each time. Half-maximal inhibition in assay [1] (IC50) required 106 µM.
As to `COc1ccc2[nH]cc(C(c3ccc(Cl)cc3)N(C)c3ccccc3)c2c1` (configuration not stated), the inhibition at 50 µM with SK-OV-3 came to 77%. Besides, in assay [1], the IC50 turned out to be 87 µM.

Usually inhibition stands for the relative decrease from the control value, in per cent. The IC50 is the concentration at which inhibition is half-maximal. High values mean weaker potency, low ones greater potency.

The record behind these values is ChEMBL document CHEMBL1777676, “3-substitued indoles: one-pot synthesis and evaluation of anticancer and Src kinase inhibitory activities” (Bioorg Med Chem Lett, 2011).
